target: T1, CCR-3 (Homo sapiens, UniProt P51677); test: Eotaxin-induced chemotaxis of CCR-3 transfectant cells (CCR3/U937); format: cell-based; set-up: expressed in transfected cells; host or cells: U937; settings: 10 µM test compound; eotaxin 1 x 10^-9 M; CCR3/U937 cells (Table 3a)
T1 sequence (P51677 1-355): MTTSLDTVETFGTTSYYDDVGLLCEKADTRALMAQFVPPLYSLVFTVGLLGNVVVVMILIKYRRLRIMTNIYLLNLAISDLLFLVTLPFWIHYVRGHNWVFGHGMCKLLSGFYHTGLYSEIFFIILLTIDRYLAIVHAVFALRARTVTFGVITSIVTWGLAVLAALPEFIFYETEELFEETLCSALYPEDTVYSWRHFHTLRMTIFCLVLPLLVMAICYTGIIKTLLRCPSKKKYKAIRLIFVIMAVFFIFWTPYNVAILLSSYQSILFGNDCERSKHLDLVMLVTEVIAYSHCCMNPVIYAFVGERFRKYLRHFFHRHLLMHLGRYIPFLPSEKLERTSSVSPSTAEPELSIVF

| SMILES | Chemotaxis Assay 10 µM (inhibition %) |
| --- | --- |
| COC(=O)CCCN(CCCNC(=O)Nc1ccc(F)cc1)C1CCCc2ccccc21 (stereo not shown) [Compound 187] | 100% |
| O=C(O)CCCN(CCCNC(=O)Nc1ccccc1-c1ccccc1)C1CCCc2ccccc21 (stereo not shown) [Compound 85] | 19% |

Further lines, results first:

| Chemotaxis Assay 10 µM (inhibition %) | SMILES |
| --- | --- |
| 100% | COC(=O)CCCN(CCCNC(=O)Nc1cccc(Cl)c1)C1CCCc2ccccc21 (stereo not shown) [Compound 51] |
| 100% | CCN(CCCNC(=O)Nc1ccccc1Br)C1CCCc2ccccc21 (stereo not shown) [Compound 191] |
| 89% | CC(=O)OCCCN(CCCNC(=O)Nc1ccc(Br)cc1)C1CCCc2ccccc21 (stereo not shown) [Compound 215] |
| 76% | CC(c1ccccc1)N(CCCNC(=O)Nc1ccc(Br)cc1)CCCC(=O)O (stereo not shown) [Compound 77] |
| 76% | O=C(O)CCCN(CCCNC(=O)Nc1ccc(-c2ccccc2)cc1)C1CCCc2ccccc21 (stereo not shown) [Compound 277] |
| 81% | O=C(O)CCCN(CCCNC(=O)Nc1ccc(Br)cc1)Cc1cccs1 [Compound 69] |
| 62% | CC(=O)c1cccc(NC(=O)NCCCN(CCCC(=O)O)C2CCCc3ccccc32)c1 (stereo not shown) [Compound 262] |
| 100% | O=C(O)CCCN(CCCNC(=O)Nc1ccc(OC(F)(F)F)cc1)C1CCCc2ccccc21 (stereo not shown) [Compound 266] |
| 100% | CC(C)CN(CCCNC(=O)Nc1ccccc1)CCc1ccc(Cl)cc1 [Compound 239] |
| 100% | COC(=O)CCCN(CCCNC(=O)Nc1ccc(Br)cc1)C1CCc2ccccc21 (stereo not shown) [Compound 172, Methyl 4-[[3-(4-bromophenylureido)propyl](1-indanyl)amino]burylate] |
| 93% | COC(=O)CCCN(CCCNC(=O)Nc1ccc(Cl)c(C(F)(F)F)c1)C1CCCc2ccccc21 (stereo not shown) [Compound 53] |
| 100% | O=C(O)CCCN(CCCNC(=O)Nc1ccc(Br)cc1)C1Cc2ccccc2C1 [Compound 175] |
| 100% | COC(=O)CCCN(CCCNC(=O)Nc1ccc(C(=O)O)cc1)C1CCCc2ccccc21 (stereo not shown) [Compound 225, Methyl 4-[[3-[4-(carboxy)phenylureido]propyl](1,2,3,4-tetrahydro-1-naphthyl)amino]butylate] |
| . 97% | COC(=O)CCCN(CCCNC(=O)Nc1ccc(Br)cc1)CCc1ccc(Cl)cc1 [Compound 31, Methyl 4-[[3-(4-bromophenylureido)pcopyl][2-(4-chlorophenyl)-ethyl]amino]butylate] |

same assay, conditions: 10 µM test compound; eotaxin 1 x 10^-9 M; CCR3/U937 cells (Table 3c)

| SMILES | Chemotaxis Assay 10 µM (inhibition %) |
| --- | --- |
| CC[N+](CCCNC(=O)Nc1ccccc1)(CCc1ccc(Cl)cc1)Cc1ccc(OCc2ccccc2)cc1.[I-] (stereo not shown) [compound 334] | 100% |
| CC[N+](CCCNC(=O)Nc1ccccc1)(CCc1ccc(Cl)cc1)Cc1ccc(C#N)cc1.[I-] (stereo not shown) [compound 345] | 100% |
| CC[N+](CCCNC(=O)Nc1ccccc1)(CCc1ccc(Cl)cc1)Cc1ccc(-c2ccccc2)cc1.[I-] (stereo not shown) [compound 330] | 100% |

Results, then the compound that gave them:

| Chemotaxis Assay 10 µM (inhibition %) | SMILES |
| --- | --- |
| 100% | CC[N+](CCCNC(=O)Nc1ccccc1)(CCc1ccc(Cl)cc1)CC1CCCCC1.[I-] (stereo not shown) [compound 319] |
| 100% | CC[N+](CCCNC(=O)Nc1ccccc1)(CCc1ccc(Cl)cc1)Cc1cccc(Oc2ccccc2F)c1.[I-] (stereo not shown) [compound 354] |
| 100% | CC[N+](CCCNC(=O)Nc1ccccc1)(CCc1ccc(Cl)cc1)CC(C)C.[I-] (stereo not shown) [compound 318] |

same assay, conditions: U-937; 10 µM test compound; eotaxin 1 x 10^-9 M; CCR3/U937 cells (Table 3a)

| SMILES | inhibition at 10 µM |
| --- | --- |
| O=C(NCCCN(CCc1ccc(Cl)cc1)Cc1ccc(Cl)cc1)Nc1ccccc1 [Compound 17] | 51% |
| CC(C)(C)c1ccc(CN(CCCNC(=O)Nc2ccccc2)CCc2ccc(Cl)cc2)cc1 [Compound 19] | 47% |
| CCOC(=O)c1ccc(CN(CCCNC(=O)Nc2ccccc2)CCc2ccc(Cl)cc2)o1 [Compound 22] | 25% |

Continued, values first:

| inhibition at 10 µM | SMILES |
| --- | --- |
| 97% | CN(CCCNC(=O)Nc1ccccc1)CCc1ccc(Cl)cc1 [Compound 27] |
| 100% | CCOC(=O)c1ccc(NC(=O)NCCCN(CCCC(=O)O)C2CCCc3ccccc32)cc1 (stereo not shown) [Compound 228, 4-[[3-[4-(Ethoxycarbonyl)phenylureido]propyl](1,2,3,4-tetrahydro-1-naphthyl)amino]butanoic acid] |
| 40% | Cc1ccc(CN(CCCNC(=O)Nc2ccccc2)CCc2ccc(Cl)cc2)cc1 [Compound 21] |
| 26% | O=C(NCCCN(CCc1ccc(Cl)cc1)Cc1cnc2ccccc2c1)Nc1ccccc1 [Compound 20] |

same assay, conditions: U-937; 10 µM test compound; eotaxin 1 x 10^-9 M; CCR3/U937 cells (Table 3c)

| inhibition at 10 µM | SMILES |
| --- | --- |
| 100% | CC[N+](CCCNC(=O)Nc1ccccc1)(CCc1ccc(Cl)cc1)Cc1ccccc1Cl (stereo not shown) [Compound 343, [3-(Phenylureido)propyl][2-(4-chlorophenyl)ethyl](2-chlorobenzyl)ethylammonium iodide] |

same assay, conditions: test compound 0.1 µg/ml; eotaxin 1 x 10^-9 M; CCR3/U937 transfectants; 37 °C, 1 hour

| SMILES | Chemotaxis Assay 0.1 µg/ml (inhibition %) |
| --- | --- |
| CC[N+](CCCNC(=O)Nc1ccccc1)(CCc1ccc(Cl)c(Cl)c1)CC1CCC1.[I-] (stereo not shown) [compound 420] | 99% |
| C=C(C)C[N+](CC)(CCCNC(=O)Nc1ccc(Cl)c(Cl)c1)CCc1ccccc1.[I-] (stereo not shown) [compound 368] | 88% |
| CCC(CC)C[N+](CC)(CCCNC(=O)Nc1ccccc1)CCc1cccc(Cl)c1.[I-] (stereo not shown) [compound 428] | 93% |
| CC[N+](CCCNC(=O)Nc1ccccc1)(CCc1ccc(Cl)cc1Cl)CC1CCC1.[I-] (stereo not shown) [compound 419] | 76% |
| CC[N+](CCF)(CCCNC(=O)Nc1ccc(C#N)cc1)CCc1cccc(Cl)c1.[I-] (stereo not shown) [compound 403] | 77% |
| CC[N+](CCCNC(=O)Nc1ccc(OC)cc1)(CCOCCOC)CCc1cccc(F)c1.[I-] (stereo not shown) [compound 439] | 51% |
| CC[N+](CCCNC(=O)Nc1ccc(Br)cc1)(CCOCCOC)CCc1cccc(Cl)c1.[I-] (stereo not shown) [compound 373] | 100% |
| CC[N+](CCF)(CCCNC(=O)Nc1ccc(C#N)cc1)CCc1ccc(Cl)cc1Cl.[I-] (stereo not shown) [compound 404] | 47% |
| CC[N+](CCF)(CCCNC(=O)Nc1ccc(Cl)c(Cl)c1)CCc1cccc(Cl)c1.[I-] (stereo not shown) [compound 369] | 82% |

The next lines start with the values.

| Chemotaxis Assay 0.1 µg/ml (inhibition %) | SMILES |
| --- | --- |
| 95% | C=C(C)C[N+](CC)(CCCNC(=O)Nc1ccccc1)CCc1ccc(Cl)cc1Cl.[I-] (stereo not shown) [compound 424] |
| 96% | CC[N+](CCF)(CCCNC(=O)Nc1ccccc1)CCc1cccc(Cl)c1.[I-] (stereo not shown) [compound 432] |
| 84% | CC[N+](CCCNC(=O)Nc1ccccc1)(CCOCCOC)CCc1ccc(Cl)cc1.[I-] (stereo not shown) [compound 412] |
| 74% | CC[N+](CCCNC(=O)Nc1ccccc1)(CCc1ccc(Cl)c(Cl)c1)CCC(C)C.[I-] (stereo not shown) [compound 408] |
| 53% | CC[N+](CCCNC(=O)Nc1ccccc1)(CCc1ccc(Cl)cc1Cl)CC(N)=O.[I-] (stereo not shown) [compound 409] |
| 93% | C=C(C)C[N+](CC)(CCCNC(=O)Nc1ccccc1)CCc1ccc(Cl)c(Cl)c1.[I-] (stereo not shown) [compound 425] |
| 51% | C=C(C)C[N+](CC)(CCCNC(=O)Nc1ccc(C(F)(F)F)cc1)CCc1cccc(Cl)c1.[I-] (stereo not shown) [compound 390] |
